# Reference: patent US9567333B2, “Triazolopyridyl compounds as aldosterone synthase inhibitors” (Merck Sharp & Dohme Corp., priority 2011, dated 2017)
# How the values were obtained:
# human CYP11B1 = human CYP11B1 (Homo sapiens (Human), UniProt P15538); test: V79-Human-CYP11B1 cell assay; type: cell-based; details: V79 cells stably expressing human CYP11B1; 250 nM 11-deoxycortisol substrate; cortisol by HTRF
# Protocol: (§1) Methods for V79-Human-CYP11B2 and V79-Human-CYP11B1 Assays: V79 cell lines stably expressing the either the human CYP11B2 or the human CYP11B1 enzyme were generated using a standard transfection protocol. V79 cells were transfected with plasmids pTriEx3-Hygro-hCyp11B2 or pTriEx3-Hygro-hCyp11B1 using Lipofectamine2000 reagent. V79 cells that stably express the human CYP11B2 or human CYP11B1 enzyme were selected for and maintained in DMEM supplemented with 10% FBS and 400 µg/mL hygromycin for ˜2 weeks. Single cell clones were generated by infinite dilution in DMEM supplemented with 10% FBS and 400 µg/mL hygromycin until single colonies were obtained. Clones V79-hCYP11B2-CLE9 and V79-hCYP11B1-8CL7, were determined to produce the most aldosterone and cortisol, respectively, and were selected for inhibitor screening. For testing of inhibitors, cells were harvested at 80% confluency with 0.05% Trypsan-EDTA, washed once in PBS, and reconstituted in DMEM+0.1% BSA media at a cell concentration of 600,000 cells/mL for the CYP11B2 assay and 280,000 cells/ml for the CYP11B1 assay. 25 μL of cells were added to a 384 well tissue culture treated plate and mixed with 0.3 μL of inhibitor or DMSO (1% final DMSO concentration) for 1 hour at 37° C., 5% CO2. After pre-incubation with inhibitor, the reaction was initiated by adding 5 μL of substrate (final concentration of 125 nM 11-deoxycorticosterone for the CYP11B2 assay or 250 nM 11-deoxycortisol for the CYP11B1 assay). The reaction was carried out for 3 hours at 37° C., 5% CO2 and was stopped by harvesting the supernatants. The amount of product in the supernatant (aldosterone for CYP11B2 assay and cortisol for the CYP11B1 assay) was measured using HTRF-based assay kit (Aldosterone HTRF-CisBio #64ALDPEB, Cortisol HTRF-CisBio #63IDC002-CORT). IC50s for the inhibitor were determined by plotting the amount of product formed against the concentration of inhibitor using sigmoidal dose-response curve (variable slope) fit in GraphPad.
# human CYP11B2 = human CYP11B2 (Homo sapiens (Human), UniProt P19099); test: V79-Human-CYP11B2 cell assay; type: cell-based; details: V79 cells stably expressing human CYP11B2; 125 nM 11-deoxycorticosterone substrate; aldosterone by HTRF
# Protocol: as §1
# Chain of human CYP11B2 (P19099 25-503): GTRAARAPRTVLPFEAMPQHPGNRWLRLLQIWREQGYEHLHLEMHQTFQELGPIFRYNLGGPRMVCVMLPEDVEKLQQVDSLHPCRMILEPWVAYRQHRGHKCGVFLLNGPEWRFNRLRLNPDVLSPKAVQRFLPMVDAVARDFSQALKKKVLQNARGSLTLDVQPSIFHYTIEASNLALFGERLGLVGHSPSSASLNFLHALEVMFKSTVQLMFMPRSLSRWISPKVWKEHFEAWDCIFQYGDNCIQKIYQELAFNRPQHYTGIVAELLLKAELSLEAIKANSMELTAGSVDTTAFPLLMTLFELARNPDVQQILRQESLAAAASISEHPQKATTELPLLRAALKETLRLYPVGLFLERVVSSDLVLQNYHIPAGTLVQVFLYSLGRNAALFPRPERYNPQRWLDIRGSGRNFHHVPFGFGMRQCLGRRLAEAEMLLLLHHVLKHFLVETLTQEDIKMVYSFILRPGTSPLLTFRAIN
# Chain of human CYP11B1 (P15538 25-503): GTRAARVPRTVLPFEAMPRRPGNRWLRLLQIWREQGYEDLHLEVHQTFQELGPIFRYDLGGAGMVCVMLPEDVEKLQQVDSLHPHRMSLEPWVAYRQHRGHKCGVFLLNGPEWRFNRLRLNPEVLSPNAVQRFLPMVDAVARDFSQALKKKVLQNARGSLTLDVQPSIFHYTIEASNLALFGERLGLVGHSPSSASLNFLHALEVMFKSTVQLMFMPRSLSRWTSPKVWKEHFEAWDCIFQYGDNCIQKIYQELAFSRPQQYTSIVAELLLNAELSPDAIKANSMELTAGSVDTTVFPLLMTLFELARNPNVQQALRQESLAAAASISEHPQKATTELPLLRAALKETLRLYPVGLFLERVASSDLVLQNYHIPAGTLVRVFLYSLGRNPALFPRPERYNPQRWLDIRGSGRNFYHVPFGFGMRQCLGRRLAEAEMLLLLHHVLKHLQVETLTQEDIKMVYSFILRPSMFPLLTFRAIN
IC50 (human CYP11B1),IC50 (human CYP11B2),SMILES
> 8330 nM,138 nM,"c1ccc2c(-c3nc4ccccn4n3)cncc2c1 [Example 5, 4-([1,2,4]triazolo[1,5-a]pyridin-2-yl)isoquinoline]"
> 8330 nM,171 nM,"Clc1cccn2nc(-c3cncc4ccccc34)nc12 [Example 7, 4-(8-chloro-[1,2,4]triazolo[1,5-a]pyridin-2-yl)isoquinoline]"
> 8330 nM,1070 nM,"CC(C)(O)c1cncc(-c2nc3ccc(F)cn3n2)c1 [Example 12, 2-(5-(6-fluoro-[1,2,4]triazolo[1,5-a]pyridin-2-yl)pyridin-3-yl)propan-2-ol]"
> 8330 nM,884 nM,"Cc1cccc2nc(-c3cncc(Br)c3)nn12 [Example 13, 2-(5-bromopyridin-3-yl)-5-methyl-[1,2,4] triazolo[1,5-a]pyridine]"
> 8330 nM,126 nM,"Fc1cc(F)c2nc(-c3cncc4ccccc34)nn2c1 [Example 18, 4-(6,8-difluoro-[1,2,4]triazolo[1,5-a]pyridin-2-yl)isoquinoline]"
1080 nM,22 nM,"Fc1ccn2nc(-c3cncc4ccccc34)nc2c1 [Example 20, 4-(7-fluoro-[1,2,4]triazolo[1,5-a]pyridin-2-yl)isoquinoline]"
2150 nM,46 nM,"Fc1ccc2nc(-c3cncc4ccccc34)nn2c1 [Example 21, 4-(6-fluoro-[1,2,4]triazolo[1,5-a]pyridin-2-yl)isoquinoline]"
